Data published in ChEMBL document CHEMBL1201861, “Genomics of Drug Sensitity in Cancer screening data, Wellcome Trust Sanger Institute”.

How the values were obtained:
NCI-H2107 = assay: SANGER: Inhibition of human NCI-H2107 cell growth in a cell viability assay.; format: functional, cell-based
TE-441-T = assay: cells; format: functional, cell-based, Homo sapiens; conditions: Homo sapiens, TE-441-T
Description: SANGER: Inhibition of human TE-441-T cell growth in a cell viability assay.

CHP-126 = assay: cells; format: functional, cell-based, Homo sapiens; conditions: Homo sapiens, CHP-126
Description: SANGER: Inhibition of human CHP-126 cell growth in a cell viability assay.

KP-N-RT-BM-1 = assay: SANGER: Inhibition of human KP-N-RT-BM-1 cell growth in a cell viability assay.; format: functional, cell-based
NCI-H1417 = assay: cells; format: functional, cell-based, Homo sapiens; conditions: Homo sapiens, NCI-H1417;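 further: human NCI-H1417 cells, growth inhibition determined with a cell viability readout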
Description: SANGER: Inhibition of human NCI-H1417 cell growth in a cell viability assay.

BC-3 = assay: cells; format: functional, cell-based, Homo sapiens; conditions: Homo sapiens, BC-3;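 further: cell viability assay measuring growth inhibition of human BC-3 cells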
Description: SANGER: Inhibition of human BC-3 cell growth in a cell viability assay.

C-4-II = assay: SANGER: Inhibition of human C-4-II cell growth in a cell viability assay.; format: functional, cell-based; conditions: Homo sapiens, C-4-II
NCI-H1618 = assay: cells; format: functional, cell-based, Homo sapiens; conditions: Homo sapiens, NCI-H1618;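 further: growth inhibition of human NCI-H1618 cells, measured by a cell viability assay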
Description: SANGER: Inhibition of human NCI-H1618 cell growth in a cell viability assay.

Caov-3 cell line = assay: cells; format: functional, cell-based, Homo sapiens; conditions: Homo sapiens, Caov-3;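 further: cell growth inhibition read out by a viability assay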
Description: SANGER: Inhibition of human Caov-3 cell growth in a cell viability assay.

HOS = assay: cells; format: functional, cell-based, Homo sapiens; conditions: Homo sapiens, HOS;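 further: growth inhibition of human HOS cells, read out with a cell viability assay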
Description: SANGER: Inhibition of human HOS cell growth in a cell viability assay.

BHT-101 = assay: cells; format: functional, cell-based, Homo sapiens; conditions: Homo sapiens, BHT-101
Description: SANGER: Inhibition of human BHT-101 cell growth in a cell viability assay.

NCI-H1755 = assay: cells; format: functional, cell-based, Homo sapiens; conditions: Homo sapiens, NCI-H1755;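 further: cell viability readout used to measure growth inhibition of NCI-H1755 cells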
Description: SANGER: Inhibition of human NCI-H1755 cell growth in a cell viability assay.

NCI-H2228 = assay: cells; format: functional, cell-based, Homo sapiens; conditions: Homo sapiens, NCI-H2228;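 further: growth inhibition of human NCI-H2228 cells, read out by a cell viability assay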
Description: SANGER: Inhibition of human NCI-H2228 cell growth in a cell viability assay.

DU-145 = assay: cells; format: functional, cell-based, Homo sapiens; conditions: Homo sapiens, DU-145
Description: SANGER: Inhibition of human DU-145 cell growth in a cell viability assay.

PC-3 = assay: cells; format: functional, cell-based, Homo sapiens; conditions: Homo sapiens, PC-3;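 further: cell viability assay measuring growth inhibition of PC-3 cells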
Description: SANGER: Inhibition of human PC-3 cell growth in a cell viability assay.

CAL-27 = assay: cells; format: functional, cell-based, Homo sapiens; conditions: Homo sapiens, CAL-27;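 further: Viability-based readout, IC50 reflecting inhibition of CAL-27 cell growth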
Description: SANGER: Inhibition of human CAL-27 cell growth in a cell viability assay.

VM-CUB-1 = assay: cells; format: functional, cell-based, Homo sapiens; conditions: Homo sapiens, VM-CUB-1;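 further: cell viability assay measuring growth inhibition of the human VM-CUB-1 cell line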
Description: SANGER: Inhibition of human VM-CUB-1 cell growth in a cell viability assay.

PFSK-1 = assay: cells; format: functional, cell-based, Homo sapiens; conditions: Homo sapiens, PFSK-1;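 further: cell viability assay measuring how strongly compounds suppress growth of human PFSK-1 cells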
Description: SANGER: Inhibition of human PFSK-1 cell growth in a cell viability assay.

MES-SA = assay: cells; format: functional, cell-based, Homo sapiens; conditions: Homo sapiens, MES-SA;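 further: growth inhibition of human MES-SA cells, read out with a cell viability assay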
Description: SANGER: Inhibition of human MES-SA cell growth in a cell viability assay.

SNU-475 = assay: cells; format: functional, cell-based, Homo sapiens; conditions: Homo sapiens, SNU-475
Description: SANGER: Inhibition of human SNU-475 cell growth in a cell viability assay.

NCI-H2227 = assay: cells; format: functional, cell-based, Homo sapiens; conditions: Homo sapiens, NCI-H2227;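 further: growth inhibition of the human cell line, read out with a cell viability assay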
Description: SANGER: Inhibition of human NCI-H2227 cell growth in a cell viability assay.

ASPC1 = assay: cells; format: functional, cell-based, Homo sapiens; conditions: Homo sapiens, ASPC1;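 further: growth inhibition of AsPC-1 cells, read out with a cell viability assay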
Description: SANGER: Inhibition of human AsPC-1 cell growth in a cell viability assay.

SK-MEL-30 = assay: cells; format: functional, cell-based, Homo sapiens; conditions: Homo sapiens, SK-MEL-30;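 further: growth inhibition of SK-MEL-30 cells, determined with a cell viability assay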
Description: SANGER: Inhibition of human SK-MEL-30 cell growth in a cell viability assay.

HT1197 = assay: cells; format: functional, cell-based, Homo sapiens, HT-1197; conditions: Homo sapiens, HT1197
Description: SANGER: Inhibition of human HT-1197 cell growth in a cell viability assay.

A-375 = assay: cells; format: functional, cell-based, Homo sapiens; conditions: Homo sapiens, A-375;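 further: growth inhibition of A375 cells, read out with a cell viability assay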
Description: SANGER: Inhibition of human A375 cell growth in a cell viability assay.

NCI-H1734 = assay: cells; format: functional, cell-based, Homo sapiens; conditions: Homo sapiens, NCI-H1734;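 further: growth inhibition of human NCI-H1734 cells, read out with a cell viability assay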
Description: SANGER: Inhibition of human NCI-H1734 cell growth in a cell viability assay.

NCI-H1793 = assay: cells; format: functional, cell-based, Homo sapiens; conditions: Homo sapiens, NCI-H1793;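 further: cell growth inhibition, read out by a cell viability assay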
Description: SANGER: Inhibition of human NCI-H1793 cell growth in a cell viability assay.

HT-29 = assay: cells; format: functional, cell-based, Homo sapiens; conditions: Homo sapiens, HT-29;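 further: growth inhibition of human HT-29 cells, read out by a cell viability assay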
Description: SANGER: Inhibition of human HT-29 cell growth in a cell viability assay.

HSC-2 = assay: cells; format: functional, cell-based, Homo sapiens; conditions: Homo sapiens, HSC-2;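 further: growth inhibition of human HSC-2 cells, read out by a cell viability assay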
Description: SANGER: Inhibition of human HSC-2 cell growth in a cell viability assay.

SW1463 = assay: cells; format: functional, cell-based, Homo sapiens; conditions: Homo sapiens, SW1463;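 further: growth inhibition of SW1463 cells, determined with a cell viability assay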
Description: SANGER: Inhibition of human SW1463 cell growth in a cell viability assay.

MDA-MB-468 = assay: cells; format: functional, cell-based, Homo sapiens; conditions: Homo sapiens, MDA-MB-468
Description: SANGER: Inhibition of human MDA-MB-468 cell growth in a cell viability assay.

CAMA-1 = assay: cells; format: functional, cell-based, Homo sapiens; conditions: Homo sapiens, CAMA-1;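 further: growth inhibition of CAMA-1 cells, read out with a cell viability assay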
Description: SANGER: Inhibition of human CAMA-1 cell growth in a cell viability assay.

KYSE-180 = assay: cells; format: functional, cell-based, Homo sapiens; conditions: Homo sapiens, KYSE-180;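 further: growth inhibition of KYSE-180 cells, read out with a cell viability assay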
Description: SANGER: Inhibition of human KYSE-180 cell growth in a cell viability assay.

CHL-1 = assay: cells; format: functional, cell-based, Homo sapiens; conditions: Homo sapiens, CHL-1;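 further: cell growth inhibition, read out with a cell viability assay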
Description: SANGER: Inhibition of human CHL-1 cell growth in a cell viability assay.

SK-MEL-28 = assay: cells; format: functional, cell-based, Homo sapiens; conditions: Homo sapiens, SK-MEL-28;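 further: growth inhibition of human SK-MEL-28 cells, read out with a cell viability assay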
Description: SANGER: Inhibition of human SK-MEL-28 cell growth in a cell viability assay.

HLE = assay: cells; format: functional, cell-based, Homo sapiens; conditions: Homo sapiens, HLE;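 further: growth inhibition of human HLE cells, read out by a cell viability assay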
Description: SANGER: Inhibition of human HLE cell growth in a cell viability assay.

DMS-53 = assay: cells; format: functional, cell-based, Homo sapiens; conditions: Homo sapiens, DMS-53;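 further: cell viability assay measuring growth inhibition of human DMS-53 cells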
Description: SANGER: Inhibition of human DMS-53 cell growth in a cell viability assay.

NCI-H838 = assay: cells; format: functional, cell-based, Homo sapiens; conditions: Homo sapiens, NCI-H838;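 further: growth inhibition of human NCI-H838 cells, read out by a cell viability assay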
Description: SANGER: Inhibition of human NCI-H838 cell growth in a cell viability assay.

EW-7 = assay: SANGER: Inhibition of human EW-7 cell growth in a cell viability assay.; format: functional, cell-based; conditions: Homo sapiens, EW-7
PANC-03-27 = assay: cells; format: functional, cell-based, Homo sapiens; conditions: Homo sapiens, PANC-03-27
Description: SANGER: Inhibition of human PANC-03-27 cell growth in a cell viability assay.

COLO 205 = assay: cells; format: functional, cell-based, Homo sapiens; conditions: Homo sapiens, COLO 205
Description: SANGER: Inhibition of human COLO-205 cell growth in a cell viability assay.

HEC-1 = assay: cells; format: functional, cell-based, Homo sapiens; conditions: Homo sapiens, HEC-1;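 further: growth inhibition of the cell line, read out with a cell viability assay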
Description: SANGER: Inhibition of human HEC-1 cell growth in a cell viability assay.

`COc1cc(-c2nn([C@H]3CC[C@H](N4CCN(C(C)=O)CC4)CC3)c3ncnc(N)c23)ccc1NC(=O)c1cc2ccccc2n1C` gave an IC50 (NCI-H2107) greater than 5120 nM, an IC50 (TE-441-T) greater than 5120 nM and an IC50 (CHP-126) greater than 5120 nM. It also gave an IC50 (KP-N-RT-BM-1) greater than 5120 nM, an IC50 (NCI-H1417) greater than 5120 nM and an IC50 (BC-3) greater than 5120 nM.
For `OCCCNc1cc(-c2ccnc(Nc3cccc(Cl)c3)n2)ccn1`, the IC50 (NCI-H2107) was 135 nM, the IC50 (TE-441-T) was 38.4 nM and the IC50 (CHP-126) was 135 nM. The IC50 (KP-N-RT-BM-1) was 148 nM, the IC50 (NCI-H1417) was greater than 256 nM and the IC50 (BC-3) was 76.6 nM.
`Cc1ccc(-c2c(C(=O)CCl)n(CCCO)c3ncnc(N)c23)cc1` was tested, and the IC50 (NCI-H2107) was greater than 4000 nM, the IC50 (TE-441-T) was greater than 4000 nM and the IC50 (CHP-126) was greater than 4000 nM. For the same compound, the IC50 (KP-N-RT-BM-1) was 2510 nM, the IC50 (NCI-H1417) was greater than 4000 nM and the IC50 (BC-3) was greater than 4000 nM.
Work on `Nc1ccn([C@@H]2O[C@H](CO)[C@@H](O)C2(F)F)c(=O)n1` [GEMCITABINE] yielded an IC50 (C-4-II) of 152 nM, an IC50 (NCI-H1618) of 198 nM and an IC50 (Caov-3 cell line) of 54.1 nM. It also gave an IC50 (HOS) of less than 4 nM, an IC50 (BHT-101) of 210 nM and an IC50 (TE-441-T) greater than 1020 nM. For the same compound, the IC50 (CHP-126) was 24.1 nM, the IC50 (NCI-H1755) was 718 nM and the IC50 (NCI-H2228) was less than 4 nM. It also gave an IC50 (DU-145) of 9.29 nM, an IC50 (PC-3) greater than 1020 nM and an IC50 (CAL-27) of 35.2 nM. The IC50 (VM-CUB-1) was 34.7 nM, the IC50 (PFSK-1) was greater than 1020 nM and the IC50 (MES-SA) was less than 4 nM. The IC50 (SNU-475) was greater than 1020 nM, the IC50 (NCI-H2227) was greater than 1020 nM and the IC50 (ASPC1) was greater than 1020 nM. The IC50 (SK-MEL-30) was less than 4 nM, the IC50 (HT1197) was greater than 1020 nM and the IC50 (A-375) was less than 4 nM. For the same compound, the IC50 (NCI-H1734) was 11.3 nM, the IC50 (NCI-H1793) was 224 nM and the IC50 (HT-29) was less than 4 nM. For the same compound, the IC50 (HSC-2) was 3.03 nM, the IC50 (SW1463) was 510 nM and the IC50 (MDA-MB-468) was 14.1 nM. The IC50 (NCI-H1417) was greater than 1020 nM, the IC50 (CAMA-1) was 396 nM and the IC50 (BC-3) was 221 nM. For the same compound, the IC50 (KYSE-180) was 12.8 nM, the IC50 (CHL-1) was less than 4 nM and the IC50 (SK-MEL-28) was greater than 1020 nM. For the same compound, the IC50 (HLE) was 3 nM, the IC50 (DMS-53) was greater than 1020 nM and the IC50 (NCI-H838) was 499 nM. The IC50 (EW-7) was less than 4 nM, the IC50 (PANC-03-27) was 3.51 nM and the IC50 (COLO 205) was greater than 1020 nM. For the same compound, the IC50 (HEC-1) was 124 nM.
Work on `O=C(O)c1ccc(-c2c[nH]c3ncc(-c4ccccc4)cc23)cc1C1CCCC1` [GSK-650394] yielded an IC50 (C-4-II) of 13900 nM, an IC50 (NCI-H1618) greater than 16000 nM and an IC50 (Caov-3 cell line) greater than 16000 nM. The IC50 (HOS) was 1970 nM, the IC50 (BHT-101) was greater than 16000 nM and the IC50 (TE-441-T) was greater than 16000 nM. It also gave an IC50 (CHP-126) greater than 16000 nM, an IC50 (NCI-H1755) greater than 16000 nM and an IC50 (NCI-H2228) of 4640 nM. The IC50 (DU-145) was greater than 16000 nM, the IC50 (PC-3) was greater than 16000 nM and the IC50 (CAL-27) was 5330 nM. The IC50 (VM-CUB-1) was greater than 16000 nM, the IC50 (PFSK-1) was greater than 16000 nM and the IC50 (MES-SA) was 5560 nM. It also gave an IC50 (SNU-475) greater than 16000 nM, an IC50 (NCI-H2227) greater than 16000 nM and an IC50 (ASPC1) greater than 16000 nM. For the same compound, the IC50 (SK-MEL-30) was 7970 nM, the IC50 (HT1197) was greater than 16000 nM and the IC50 (A-375) was 5250 nM. For the same compound, the IC50 (NCI-H1734) was greater than 16000 nM, the IC50 (NCI-H1793) was greater than 16000 nM and the IC50 (HT-29) was 7270 nM. It also gave an IC50 (HSC-2) greater than 16000 nM, an IC50 (SW1463) greater than 16000 nM and an IC50 (MDA-MB-468) greater than 16000 nM. For the same compound, the IC50 (NCI-H1417) was greater than 16000 nM, the IC50 (CAMA-1) was greater than 16000 nM and the IC50 (BC-3) was 1870 nM. The IC50 (KYSE-180) was 2060 nM, the IC50 (CHL-1) was 3500 nM and the IC50 (SK-MEL-28) was greater than 16000 nM. The IC50 (HLE) was 1430 nM, the IC50 (DMS-53) was greater than 16000 nM and the IC50 (NCI-H838) was greater than 16000 nM. It also gave an IC50 (EW-7) greater than 16000 nM, an IC50 (PANC-03-27) greater than 16000 nM and an IC50 (COLO 205) greater than 16000 nM. The IC50 (HEC-1) was greater than 16000 nM.
